Reference: patent US20200190067A1, “PHOTO-SWITCHABLE CHEMICAL INDUCERS OF DIMERIZATION FOR CONTROL OF PROTEIN FUNCTION IN CELLS BY LIGHT” (Max-Planck-Gesellschaft zur Förderung der Wissenschaften …, priority 2017, published 2020)

Experiment: UV-Vis absorption spectra
Type: physicochemical
Settings: 50 μM dimerizer in PBS buffer (pH 7.4, 0.5% DMSO)
Description: FIG. 1: UV-Vis absorption spectra of TMP—PC—Cl (black) and 4-CmTMP—PC—Cl (red). A solution of 50 μM of the respective dimerizer in PBS buffer (pH 7.4, 0.5% DMSO) was subjected to UV-Vis absorption analysis (FIG. 1). 0.5% DMSO in PBS was used as the blank.
UV-Vis absorption spectra were recorded using SHIMADZU UV-2401PC UV-Vis Recording Spectrophotometer. A solution of 50 μM of the respective dimerizer in PBS buffer (pH 7.4, 0.5% DMSO) was subjected to UV-Vis absorption analysis (FIG. 1). 0.5% DMSO in PBS was used as the blank.

absorption peak: 348.5 nm
SMILES: COc1cc(COC(=O)NCCCOCCOCCOCCCNC(=O)COc2c(OC)cc(Cc3cnc(N)nc3N)cc2OC)c([N+](=O)[O-])cc1OCCOCCOCCOCCOCCOCCCCCCCl [TMP—PC—Cl, 4-((21-Chloro-3,6,9,12,15-pentaoxahenicosyl)oxy)-5-methoxy-2-nitrobenzyl (1-(4-((2,4-diaminopyrimidin-5-yl)methyl)-2,6-dimethoxyphenoxy)-2-oxo-7,10,13-trioxa-3-azahexadecan-16-yl)carbamate]
